Molecules are shown by their SMILES.

For this assay, the target named is T1, human FXR (Homo sapiens, UniProt Q96RI1).
T1 construct: expressed in transfected cells; host or cells: HEK293 cells stably carrying a 5xGal4-response-element firefly luciferase reporter, transiently transfected with pcDNA3.1-Gal4-FXR
T1 sequence (Q96RI1 262-486 limits assumed): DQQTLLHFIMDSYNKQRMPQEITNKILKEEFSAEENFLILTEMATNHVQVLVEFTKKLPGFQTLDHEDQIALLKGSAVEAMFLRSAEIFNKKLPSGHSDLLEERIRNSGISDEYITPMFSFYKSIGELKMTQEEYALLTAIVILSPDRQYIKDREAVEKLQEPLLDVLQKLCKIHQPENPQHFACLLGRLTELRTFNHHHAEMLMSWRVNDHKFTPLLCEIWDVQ
As to the kind of experiment: transient human FXR/Gal4-luciferase reporter assay. The class given is cell-based. Particulars: Gal4-hFXR transfected HEK293 reporter cells; relative to 8 μM GW-4064. The gist of the method: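 Transient Gal4-hFXR LBD fusion (pcDNA3.1, Lipofectamine, overnight) expressed in a HEK293 reporter line stably bearing five Gal4 elements upstream of firefly luciferase, grown in charcoal/dextran-stripped FBS. Compound dilutions in DMSO incubated with cells overnight at 37° C, 5% CO2, before luciferase readout.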
For orientation: A reporter such as luciferase makes a cellular process visible.
As for `O=C(O)c1cc(OC(F)F)c2cc(N3CCC4(C=C(c5c(-c6cnccc6C(F)(F)F)noc5C5CC5)C4)CC3)ccc2n1` [Example 75, 6-(2-(5-Cyclopropyl-3-(4-(trifluoromethyl)pyridin-3-yl)isoxazol-4-yl)-7-azaspiro[3.5]non-1-en-7-yl)-4-(difluoromethoxy)quinoline-2-carboxylic acid], the concentration giving a half-maximal response (EC50) – broadly, the concentration needed to bring the measured effect to its halfway point – was 0.035 µM. This counts as double-digit nanomolar.

Take `COc1cc(N2CCC3(C=C(c4c(-c5c(Cl)cncc5Cl)noc4C4CC4)C3)CC2)ncc1C(=O)O` [Example 76, 6-(2-(5-Cyclopropyl-3-(3,5-dichloropyridin-4-yl)isoxazol-4-yl)-7-azaspiro[3.5]non-1-en-7-yl)-4-methoxynicotinic acid]: the EC50 was determined as 2.15 µM.

In the case of `O=C(O)c1cc(OC(F)F)c2cc(N3CCC4(C=C(c5c(-c6cccnc6C(F)(F)F)noc5C5CC5)C4)CC3)ccc2n1` [Example 77, 6-(2-(5-Cyclopropyl-3-(2-(trifluoromethyl)pyridin-3-yl)isoxazol-4-yl)-7-azaspiro[3.5]non-1-en-7-yl)-4-(difluoromethoxy)quinoline-2-carboxylic acid], the EC50 came to 0.068 µM.

Compound `O=C(O)c1cc(OC(F)F)c2cc(N3CCC4(C=C(c5c(-c6ncccc6Cl)noc5C5CC5)C4)CC3)ccc2n1` [Example 78, 6-(2-(3-(3-Chloropyridin-2-yl)-5-cyclopropylisoxazol-4-yl)-7-azaspiro[3.5]non-1-en-7-yl)-4-(difluoromethoxy)quinoline-2-carboxylic acid] had an EC50 of 0.121 µM.

Take `O=C(O)c1cc2ccc(N3CCC4(C=C(c5c(-c6c(F)cccc6F)noc5C5CC5)C4)CC3)cc2nn1` [Example 79, 7-(2-(5-Cyclopropyl-3-(2,6-difluorophenyl)isoxazol-4-yl)-7-azaspiro[3.5]non-1-en-7-yl)cinnoline-3-carboxylic acid]: it took 0.733 µM to reach a half-maximal effect (EC50).

Turning to `O=C(O)c1cc2ccc(N3CCC4(C=C(c5c(-c6ccncc6Cl)noc5C5CC5)C4)CC3)cc2nn1` [Example 80, 7-(2-(3-(3-Chloropyridin-4-yl)-5-cyclopropylisoxazol-4-yl)-7-azaspiro[3.5]non-1-en-7-yl)cinnoline-3-carboxylic acid], the EC50 stood at 1.36 µM.

The compound `O=C(O)c1cc2ccc(N3CCC4(C=C(c5c(-c6cnccc6C(F)(F)F)noc5C5CC5)C4)CC3)cc2nn1` [Example 81, 7-(2-(5-Cyclopropyl-3-(4-(trifluoromethyl)pyridin-3-yl)isoxazol-4-yl)-7-azaspiro[3.5]non-1-en-7-yl)cinnoline-3-carboxylic acid] returned a 50% effective concentration (EC50) of 1.54 µM.

As to `O=C(O)c1cc(C(F)(F)F)c2cc(N3CCC4(C=C(c5c(-c6c(F)cccc6F)noc5C5CC5)C4)CC3)ccc2n1` [Example 82, 6-(2-(5-Cyclopropyl-3-(2,6-difluorophenyl)isoxazol-4-yl)-7-azaspiro[3.5]non-1-en-7-yl)-4-(trifluoromethyl)quinoline-2-carboxylic acid], the 50% effective concentration (EC50) came to 0.356 µM.

In turn, `O=C(O)c1cc(C(F)(F)F)c2cc(N3CCC4(C=C(c5c(-c6c(Cl)cccc6Cl)noc5C5CC5)C4)CC3)ccc2n1` [Example 83, 6-(2-(5-Cyclopropyl-3-(2,6-dichlorophenyl)isoxazol-4-yl)-7-azaspiro[3.5]non-1-en-7-yl)-4-(trifluoromethyl)quinoline-2-carboxylic acid] registered a concentration for a half-maximal effect (EC50) of 0.038 µM.

In the case of `CC(C)c1onc(-c2c(Cl)cccc2Cl)c1C1=CC2(CCN(c3ccc4nc(C(=O)O)cc(C(F)(F)F)c4c3)CC2)C1` [Example 84, 6-(2-(3-(2,6-Dichlorophenyl)-5-isopropylisoxazol-4-yl)-7-azaspiro[3.5]non-1-en-7-yl)-4-(trifluoromethyl)quinoline-2-carboxylic acid], it took 0.127 µM to reach a half-maximal effect (EC50).

In the case of `O=C(O)c1cc(C(F)(F)F)c2cc(N3CCC4(C=C(c5c(-c6c(Cl)cc(F)cc6Cl)noc5C5CC5)C4)CC3)ccc2n1` [Example 86, 6-(2-(5-Cyclopropyl-3-(2,6-dichloro-4-fluorophenyl)isoxazol-4-yl)-7-azaspiro[3.5]non-1-en-7-yl)-4-(trifluoromethyl)quinoline-2-carboxylic acid], the midpoint of the response, the EC50, lay at 0.068 µM. Compared with the last compound, the EC50 is about 1.9-fold lower.

The compound `Cc1cc(C(=O)O)nc2ccc(N3CCC4(C=C(c5c(-c6c(Cl)cncc6Cl)noc5C5CC5)C4)CC3)cc12` [Example 87, 6-(2-(5-Cyclopropyl-3-(3,5-dichloropyridin-4-yl)isoxazol-4-yl)-7-azaspiro[3.5]non-1-en-7-yl)-4-methylquinoline-2-carboxylic acid] registered an EC50 of 0.076 µM. The EC50 values of the last two compounds are within 1.5-fold of each other.

On to `O=C(O)c1cc(C(F)(F)F)c2cc(N3CCC4(C=C(c5c(-c6c(F)cccc6Cl)noc5C5CC5)C4)CC3)ccc2n1` [Example 88, 6-(2-(3-(2-Chloro-6-fluorophenyl)-5-cyclopropylisoxazol-4-yl)-7-azaspiro[3.5]non-1-en-7-yl)-4-(trifluoromethyl)quinoline-2-carboxylic acid], for which the concentration for a half-maximal effect (EC50) is 0.15 µM. Compared with the last compound, the EC50 is about 2-fold higher.

As to `Cc1cccc(Cl)c1-c1noc(C2CC2)c1C1=CC2(CCN(c3ccc4nc(C(=O)O)cc(C(F)(F)F)c4c3)CC2)C1` [Example 89, 6-(2-(3-(2-Chloro-6-methylphenyl)-5-cyclopropylisoxazol-4-yl)-7-azaspiro[3.5]non-1-en-7-yl)-4-(trifluoromethyl)quinoline-2-carboxylic acid], it took 0.202 µM to reach a half-maximal effect (EC50).

As for `O=C(O)c1cc(C(F)(F)F)c2cc(N3CCC4(C=C(c5c(-c6cnccc6C(F)(F)F)noc5C5CC5)C4)CC3)ccc2n1` [Example 90, 6-(2-(5-Cyclopropyl-3-(4-(trifluoromethyl)pyridin-3-yl)isoxazol-4-yl)-7-azaspiro[3.5]non-1-en-7-yl)-4-(trifluoromethyl)quinoline-2-carboxylic acid], the concentration giving a half-maximal response (EC50) is 0.195 µM.

As to `O=C(O)c1cc(C(F)(F)F)c2cc(N3CCC4(C=C(c5c(-c6ncccc6Cl)noc5C5CC5)C4)CC3)ccc2n1` [Example 91, 6-(2-(3-(3-Chloropyridin-2-yl)-5-cyclopropylisoxazol-4-yl)-7-azaspiro[3.5]non-1-en-7-yl)-4-(trifluoromethyl)quinoline-2-carboxylic acid], it took 0.219 µM to reach a half-maximal effect (EC50).

With `O=C(O)c1cc(C(F)(F)F)c2cc(N3CCC4(C=C(c5c(-c6cccnc6C(F)(F)F)noc5C5CC5)C4)CC3)ccc2n1` [Example 92, 6-(2-(5-Cyclopropyl-3-(2-(trifluoromethyl)pyridin-3-yl)isoxazol-4-yl)-7-azaspiro[3.5]non-1-en-7-yl)-4-(trifluoromethyl)quinoline-2-carboxylic acid], a half-maximal response (EC50) required 0.253 µM.

Consider `O=C(O)c1cc(C(F)(F)F)c2cc(N3CCC4(C=C(c5c(-c6c(F)cncc6F)noc5C5CC5)C4)CC3)ccc2n1` [Example 93, 6-(2-(5-Cyclopropyl-3-(3,5-difluoropyridin-4-yl)isoxazol-4-yl)-7-azaspiro[3.5]non-1-en-7-yl)-4-(trifluoromethyl)quinoline-2-carboxylic acid], for which the EC50 turned out to be 0.511 µM.

Compound `CC1(c2onc(-c3c(Cl)cncc3Cl)c2C2=CC3(CCN(c4ccc5nc(C(=O)O)cc(C(F)(F)F)c5c4)CC3)C2)CC1` [Example 94, 6-(2-(3-(3,5-Dichloropyridin-4-yl)-5-(1-methylcyclopropyl)isoxazol-4-yl)-7-azaspiro[3.5]non-1-en-7-yl)-4-(trifluoromethyl)quinoline-2-carboxylic acid] gave a half-maximal effective concentration (EC50) of 0.507 µM. The EC50 values of the last two compounds are within 1.5-fold of each other.

(Values after patent US11078198B2 (BRISTOL-MYERS SQUIBB COMPANY, priority 2017, dated 2021).)
